In data set [1] the test system is erythrocytes. Type of data set: cell-based, human. The settings on record: pH 7.6. How it is done:
To test the hemolytic activities of GS and its analogues, conserved human blood samples were obtained from Karlsruhe municipal hospital and washed four times in Tris buffer, pH 7.6, at 4° C. Aliquots of the blood cells were incubated with different concentrations of the peptide/peptidomimetics for 30 min at 37° C. and subsequently centrifuged. The absorption of the supernatant at 540 nm gives the extent of hemolysis, relative to 0% as taken from the peptide-free control and 100% after treatment with Triton X-100 (not to interfere with this analysis, the samples with GS analogues in the “closed” form were back-converted to their “open” forms by 30 min exposure to the visible light). The HC50 values, where 50% of the erythrocytes were lysed, were determined from the concentration dependent curves and are listed in Table 3. Small HC50 values indicate a high hemolytic activity, and vice versa. […] This proves by several independent assays that the biological activities of the photo-switchable GS analogues could be controlled by light.

Data set [2] concerns Staphylococcus aureus DSM 1104. It counts as cell-based. The method, then:
(§1) The antimicrobial activities of GS and its analogues were measured using broth microdilution assay using a standard protocol [Daniel Amsterdam (1996). Susceptibility testing of antimicrobials in liquid media. In: Antibiotics in laboratory medicine, Loman, V., ed., 4th ed. Williams and Wilkins, Baltimore, Md., pp. 52-111]. The peptidomimetic compounds were tested against bacteria strains Escherichia coli DSM 1103, Staphylococcus aureus DSM 1104, Staphylococcus epidermidis DSM 1708, and Staphylococcus xylosus DSM 20267. GS analogues in the “closed” form were prepared in advance by RP-HPLC and stored protecting them from light. The corresponding minimal inhibitory concentrations (MIC) are listed in Table 2, where a small MIC value indicates a high antimicrobial activity, and vice versa.

The test system of data set [3] is Staphylococcus epidermidis DSM 1708. It counts as cell-based. How it is done: as §1
The test system of data set [4] is Staphylococcus xylosus DSM 20267. It counts as cell-based. How it is done: as §1
The test system of data set [5] is Escherichia coli DSM 1103. It counts as cell-based. How it is done: as §1
Data set [6] deals with Staphylococcus xylosus. Description: photo-activation on bacterial lawn (FIG. 5). Type of data set: cell-based. Particulars: 6 or 8 μg/ml "closed" form converted 60% or 80% by visible light; 37° C. for 18 hours. The source says: The compound was applied to the bacterial lawn at different concentrations and then irradiated by visible light. Some geometrical shapes were cut out from a paper covering the entire Petri dish, such that the photo-switchable compound was converted into the “open” form only in those small areas exposed to the light. […] One further experiment aimed at finding these optimal conditions for treatment with the peptidomimetic GS-SwFP is illustrated in FIG. 5.

Data set [7] in a line: photo-conversion from "closed" to "open" form by visible light (RP-HPLC). It counts as physicochemical. The method, then: The reverse photo-conversion of the peptidomimetic GS-Sw(FP) from the “closed” to the “open” form by visible light was also tested. A solution of peptide in the pink-colored “closed”-form (in a water-acetonitrile mixture, 3:1, 100 μg/ml) was used. The conversion of the peptidomimetic from the “closed”-form to the “open”-form was determined by RP-HPLC (analytical C18 column, linear A:B gradient of 4% B/min, 1.5 ml/min flow rate) after 0.25, 1.5, 5.5, 7.5 min of irradiation by visible light. A bright halogen lamp (250 Watts) was used, and the solutions were placed in 10 cm distance from the light source. The obtained data fitted well to the exponential equation y=[…], where y is a conversion of “closed” form into the “open” form, t is the time of the illumination and r is the half-conversion time. […] The conversion from “closed” to “open” could be achieved to 100%.

Setting [8] is: 250 W halogen lamp, 10 cm, water-acetonitrile 3:1, 100 μg/ml, from exponential fit.

In brackets after ≈: the same amount, converted by molar mass. *1 amine or outer side, *2 acyl side, *3 side chain or, on linkers, in order; H or OH if unused. Where a SMILES comes first, the peptide text is derived from it. Bridges are numbered along the chain shown (N, C = ends). [ ]: non-standard residue; d: D form. X2 = CC12SC(C(=O)NN[*:2])=CC1=C1CCCC1=C1C=C(C(=O)[*:1])SC12C; X1 = Cc1sc(C(=O)NN[*:2])cc1C1=C(c2cc(C(=O)[*:1])sc2C)CCC1; Orn = NCCC[C@H](N)C(=O)O

In the case of `CC(C)C[C@@H]1NC(=O)[C@H](CCCN)NC(=O)[C@H](C(C)C)NC(=O)[C@@H]2CCCN2C(=O)[C@@H](Cc2ccccc2)NC(=O)[C@H](CC(C)C)NC(=O)[C@H](CCCN)NC(=O)[C@H](C(C)C)NC(=O)[C@@H]2CCCN2C(=O)[C@@H](Cc2ccccc2)NC1=O` [GS, [PVOL^DFPVOL^DF]cyclo, reference compound] (cyclo(L[dF]PV[Orn]L[dF]PV[Orn])), in data set [1], the “H50 (50% of hemolysis)” value came to 12 µg/mL. The “minimal inhibitory concentration (MIC)” value came out at 2 µg/mL (≈ 1.75 µM) in data set [2], 2 µg/mL (≈ 1.75 µM) in data set [3], 1 µg/mL (≈ 0.876 µM) in data set [4] and 8 µg/mL (≈ 7.01 µM) in data set [5].
As for `Cc1sc2cc1C1=C(CCC1)c1cc(sc1C)C(=O)N[C@@H](C(C)C)C(=O)N[C@@H](CCCN)C(=O)N[C@@H](CC(C)C)C(=O)N[C@H](Cc1ccccc1)C(=O)N1CCC[C@H]1C(=O)N[C@@H](C(C)C)C(=O)N[C@@H](CCCN)C(=O)N[C@@H](CC(C)C)C(=O)NNC2=O` [GS-Sw(FP), cyclo(^DFPVOL-1b-VOL)], the “antimicrobial effect on bacterial lawn after activation to "open" form” value in data set [6] is “pronounced antimicrobial activity”. In addition, the “achievable conversion from "closed" to "open"” value in data set [7] is on record as 100%. In data set [7] (setting [8]), the “time of illumination to achieve 60% transformation "closed" to "open"” value came to 7.5 min and the “time of illumination to achieve 80% conversion "closed" to "open"” value was 12.5 min.
With `CC(C)C[C@@H]1NC(=O)[C@H](CCCN)NC(=O)[C@H](C(C)C)NC(=O)[C@@H]2CCCN2C(=O)[C@@H](Cc2ccccc2)NC(=O)[C@H](CC(C)C)NC(=O)[C@H](CCCN)NC(=O)[C@H](C(C)C)NC(=O)C2=CC3=C4CCCC4=C4C=C(SC4(C)C3(C)S2)C(=O)NNC1=O` (stereo partly drawn) [GS-Sw(FP), “closed”, cyclo(^DFPVOL-1b-VOL)], the “H50 (50% of hemolysis)” value in data set [1] stood at 72 µg/mL. Moreover, the “minimal inhibitory concentration (MIC)” value in data set [2] was 32 µg/mL (≈ 25.8 µM); in data set [3], 64 µg/mL (≈ 51.5 µM); in data set [4] it was 32 µg/mL (≈ 25.8 µM); in data set [5], over 128 µg/mL.
For the molecule `Cc1sc2cc1C1=C(CCC1)c1cc(sc1C)C(=O)N[C@@H](C(C)C)C(=O)N[C@@H](CCCN)C(=O)N[C@@H](CC(C)C)C(=O)N[C@H](Cc1ccccc1)C(=O)N1CCC[C@H]1C(=O)N[C@@H](C(C)C)C(=O)N[C@@H](CCCN)C(=O)N[C@@H](CC(C)C)C(=O)NNC2=O` [GS-Sw(FP), “open”, cyclo(^DFPVOL-1b-VOL)], in data set [1], the “H50 (50% of hemolysis)” value came out at 6.5 µg/mL. For the same molecule, the “minimal inhibitory concentration (MIC)” value in data set [2] turned out to be 4 µg/mL (≈ 3.22 µM); in data set [3], 8 µg/mL (≈ 6.44 µM); in data set [4], 8 µg/mL (≈ 6.44 µM); in data set [5], 128 µg/mL (≈ 103 µM).
On to `CC(C)C[C@@H]1NC(=O)[C@H](CCCN)NC(=O)[C@H](C(C)C)NC(=O)[C@@H]2CCCN2C(=O)C2=CC3=C4CCCC4=C4C=C(SC4(C)C3(C)S2)C(=O)NNC(=O)[C@H](CCCN)NC(=O)[C@H](C(C)C)NC(=O)[C@@H]2CCCN2C(=O)[C@@H](Cc2ccccc2)NC1=O` (stereo partly drawn) [GS-Sw(LF), “closed”, cyclo(^DFPVO-1b-PVOL)] (PV[Orn]L[dF]PV[Orn]; linker N-C via X2), for which, in data set [1], the “H50 (50% of hemolysis)” value is >>128 μg/ml. Besides, the “minimal inhibitory concentration (MIC)” value in data set [2] stood at 128 µg/mL (≈ 104 µM); in data set [3], 128 µg/mL (≈ 104 µM); in data set [4], 128 µg/mL (≈ 104 µM); in data set [5], 64 µg/mL (≈ 52.2 µM).
`Cc1sc2cc1C1=C(CCC1)c1cc(sc1C)C(=O)N1CCC[C@H]1C(=O)N[C@@H](C(C)C)C(=O)N[C@@H](CCCN)C(=O)N[C@@H](CC(C)C)C(=O)N[C@H](Cc1ccccc1)C(=O)N1CCC[C@H]1C(=O)N[C@@H](C(C)C)C(=O)N[C@@H](CCCN)C(=O)NNC2=O` [GS-Sw(LF), “open”, cyclo(^DFPVO-1b-PVOL)] (PV[Orn]L[dF]PV[Orn]; linker N-C via X1): the “H50 (50% of hemolysis)” value in data set [1] stood at 47 µg/mL. Also, the “minimal inhibitory concentration (MIC)” value was 8 µg/mL (≈ 6.53 µM) in data set [2], 16 µg/mL (≈ 13.1 µM) in data set [3], 8 µg/mL (≈ 6.53 µM) in data set [4] and over 128 µg/mL in data set [5].
Turning to `CC(C)C[C@@H]1NC(=O)[C@H](CCCN)NC(=O)[C@H](C(C)C)NC(=O)[C@@H]2CCCN2C(=O)[C@@H](Cc2ccccc2)NC(=O)[C@H](CC(C)C)NC(=O)[C@H](CCCN)NC(=O)C2=CC3=C4CCCC4=C4C=C(SC4(C)C3(C)S2)C(=O)NNC(=O)[C@@H](Cc2ccccc2)NC1=O` (stereo partly drawn) [GS-Sw(PV), “closed”, cyclo(^DFPVOL^DF-1b-OL)] ([Orn]L[dF]PV[Orn]L[dF]; linker N-C via X2), the “H50 (50% of hemolysis)” value in data set [1] was determined as 58 µg/mL. Besides, the “minimal inhibitory concentration (MIC)” value in data set [2] is 16 µg/mL (≈ 12.4 µM); in data set [3], 32 µg/mL (≈ 24.8 µM); in data set [4], 32 µg/mL (≈ 24.8 µM); in data set [5], over 128 µg/mL.
For `Cc1sc2cc1C1=C(CCC1)c1cc(sc1C)C(=O)N[C@@H](CCCN)C(=O)N[C@@H](CC(C)C)C(=O)N[C@H](Cc1ccccc1)C(=O)N1CCC[C@H]1C(=O)N[C@@H](C(C)C)C(=O)N[C@@H](CCCN)C(=O)N[C@@H](CC(C)C)C(=O)N[C@H](Cc1ccccc1)C(=O)NNC2=O` [GS-Sw(PV), “open”, cyclo(^DFPVOL^DF-1b-OL)] ([Orn]L[dF]PV[Orn]L[dF]; linker N-C via X1), the “H50 (50% of hemolysis)” value in data set [1] was determined as 6 µg/mL. Besides, the “minimal inhibitory concentration (MIC)” value was 4 µg/mL (≈ 3.1 µM) in data set [2], 4 µg/mL (≈ 3.1 µM) in data set [3], 4 µg/mL (≈ 3.1 µM) in data set [4] and over 128 µg/mL in data set [5].

These data come from patent US9481712B2, “Peptidomimetics possessing photo-controlled biological activity” (priority 2013, dated 2016).
